What was measured:
CDK1/CycE1 = target: T1, CDK1/CycE1 (Homo sapiens, UniProt P06493); assay: CDK family panel, ADP-Glo; assay type: biochemical
T1 construct: ICE Bioscience Inc. (assay service)
Protocol: (§1) All the kinase activity were performed using an ADP-Glo kinase assay by ICE Bioscience Inc. (Beijing, China).

CDK3/CycE1 = target: T2, CDK3/CycE1 (Homo sapiens, UniProt Q00526); assay: CDK family panel, ADP-Glo; assay type: biochemical
T2 construct: ICE Bioscience Inc. (assay service)
Protocol: (§2) All the kinase activity were performed using an ADP-Glo kinase assay by ICE Bioscience Inc. (Beijing, China). Kinome selectivity profiles (KINOMEscan profiling) and Kd detection were performed by Eurofins DiscoveryX Corporation (San Diego, CA, USA).

CDK5/p35NCK = target: T3, CDK5/p35NCK (Homo sapiens, UniProt Q00535); assay: CDK family panel, ADP-Glo; assay type: biochemical
T3 construct: ICE Bioscience Inc. (assay service)
Protocol: as §2

[1] = system: phosphorylation of RNA polymerase II at Ser2; assay: Washout experiment, RNA polymerase II Ser2 phosphorylation (immunoblot); assay type: cell-based, human; details: VCaP cells; YJZ5118 100 nM
Protocol: The previously reported reversible inhibitor 10 was included for comparison. VCaP cells were treated with the compounds for 6 h, after which the compounds were removed, and the cells were cultured in compound-free media for 5 days.
Generally, after incubation with the compounds for the indicated time, the tested cells were washed by cold PBS buffer (Gibco) and lysed with RIPA buffer (ThermoFisher Scientific) supplemented with cOmplete protease inhibitor cocktail tablets (Sigma-Aldrich). The cell lysate was treated with ultrasonic for 20s, following a centrifugation of 14000 rpm at 4°C for 10 min. The protein concentration was measured by BCA protein assay (DC Protein Assay, BIO-RAD). An equal amount of protein was loaded to 4–12% Bis-Tris gels and underwent SDS-PAGE electrophoresis at 120 V for 90 min. The proteins were transferred to a nitrocellulose (NC) membrane (Thermo Scientific) and the membranes were blocked in 5% milk buffer at room temperature for 1h, followed by incubating with primary antibody at the recommended dilution at 4°C for overnight. The membranes were washed by PBST for three times and incubated with anti-rabbit or anti-mouse HRP-conjugated secondary antibody for 1h at room temperature, after which the membranes were imaged by Odyssey CLx Imager (LiCOR Biosciences).

CDK15/CycY = target: T4, CDK15/CycY (Homo sapiens, UniProt Q96Q40); assay: CDK family panel, ADP-Glo; assay type: biochemical
T4 construct: ICE Bioscience Inc. (assay service)
Protocol: as §1

CDK9/CycT1 = target: T5, CDK9/CycT1 (Homo sapiens, UniProt P50750); assay: CDK family panel, ADP-Glo; assay type: biochemical
T5 construct: ICE Bioscience Inc. (assay service)
Protocol: as §1

CDK5/p25NCK = target: T6, CDK5/p25NCK (Homo sapiens, UniProt Q00535); assay: CDK family panel, ADP-Glo; assay type: biochemical
T6 construct: ICE Bioscience Inc. (assay service)
Protocol: as §1

CDK14/CycY = target: T7, CDK14/CycY (Homo sapiens, UniProt O94921); assay: CDK family panel, ADP-Glo; assay type: biochemical
T7 construct: ICE Bioscience Inc. (assay service)
Protocol: as §1

CDK2/CycA2 = target: T8, CDK2/CycA2 (Homo sapiens, UniProt P24941); assay: CDK family panel, ADP-Glo; assay type: biochemical
T8 construct: ICE Bioscience Inc. (assay service)
Protocol: as §1

T7 sequence (O94921 whole entry, species assumed): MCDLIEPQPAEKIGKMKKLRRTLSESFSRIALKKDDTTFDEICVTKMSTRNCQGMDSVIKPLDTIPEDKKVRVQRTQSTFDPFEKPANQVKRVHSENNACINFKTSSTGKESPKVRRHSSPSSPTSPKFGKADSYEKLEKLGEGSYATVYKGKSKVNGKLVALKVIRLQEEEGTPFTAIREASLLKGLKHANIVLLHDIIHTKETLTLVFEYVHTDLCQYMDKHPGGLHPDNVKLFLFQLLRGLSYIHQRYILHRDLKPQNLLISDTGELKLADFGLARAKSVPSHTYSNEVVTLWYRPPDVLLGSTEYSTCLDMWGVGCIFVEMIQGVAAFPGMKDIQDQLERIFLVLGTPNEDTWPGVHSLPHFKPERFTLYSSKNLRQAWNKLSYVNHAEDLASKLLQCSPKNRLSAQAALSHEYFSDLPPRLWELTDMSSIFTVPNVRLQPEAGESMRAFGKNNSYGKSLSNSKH
T7 sequence (Q8ND76 whole entry partner, species assumed): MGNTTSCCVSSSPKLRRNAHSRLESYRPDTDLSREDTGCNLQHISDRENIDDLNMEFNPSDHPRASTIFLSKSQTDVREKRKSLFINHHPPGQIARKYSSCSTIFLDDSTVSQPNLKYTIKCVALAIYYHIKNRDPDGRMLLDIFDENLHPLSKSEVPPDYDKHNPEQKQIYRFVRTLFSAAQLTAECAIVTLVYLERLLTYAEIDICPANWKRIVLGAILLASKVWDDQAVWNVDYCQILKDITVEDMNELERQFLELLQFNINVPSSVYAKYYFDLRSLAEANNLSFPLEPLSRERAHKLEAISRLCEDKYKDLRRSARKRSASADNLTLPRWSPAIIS
T6 sequence (Q00535 whole entry): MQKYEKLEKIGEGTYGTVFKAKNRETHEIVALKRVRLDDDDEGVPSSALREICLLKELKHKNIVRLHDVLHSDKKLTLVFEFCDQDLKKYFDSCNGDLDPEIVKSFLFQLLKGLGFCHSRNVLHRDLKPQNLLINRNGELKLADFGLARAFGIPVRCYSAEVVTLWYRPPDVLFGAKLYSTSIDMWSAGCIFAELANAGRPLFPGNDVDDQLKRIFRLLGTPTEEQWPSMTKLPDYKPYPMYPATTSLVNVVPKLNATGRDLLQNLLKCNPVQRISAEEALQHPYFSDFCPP
T6 sequence (Q15078 99-307 partner): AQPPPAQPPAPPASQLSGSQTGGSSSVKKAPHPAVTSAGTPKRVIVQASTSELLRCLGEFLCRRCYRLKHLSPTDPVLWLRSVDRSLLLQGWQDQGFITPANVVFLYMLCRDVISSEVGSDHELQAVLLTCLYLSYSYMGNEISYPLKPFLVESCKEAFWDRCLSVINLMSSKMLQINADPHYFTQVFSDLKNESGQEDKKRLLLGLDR
T3 sequence (Q00535 whole entry, species assumed): as the sequence (Q00535 whole entry) above
T3 sequence (Q15078 whole entry partner, species assumed): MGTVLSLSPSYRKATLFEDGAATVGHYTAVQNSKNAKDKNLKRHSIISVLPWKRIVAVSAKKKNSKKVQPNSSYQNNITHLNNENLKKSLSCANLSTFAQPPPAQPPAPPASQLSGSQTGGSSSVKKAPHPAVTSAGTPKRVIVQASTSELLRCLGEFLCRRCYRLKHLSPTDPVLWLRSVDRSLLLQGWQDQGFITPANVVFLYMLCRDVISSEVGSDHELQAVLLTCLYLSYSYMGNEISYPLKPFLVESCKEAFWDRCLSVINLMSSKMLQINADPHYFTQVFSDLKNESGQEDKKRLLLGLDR
T2 sequence (Q00526 whole entry, species assumed): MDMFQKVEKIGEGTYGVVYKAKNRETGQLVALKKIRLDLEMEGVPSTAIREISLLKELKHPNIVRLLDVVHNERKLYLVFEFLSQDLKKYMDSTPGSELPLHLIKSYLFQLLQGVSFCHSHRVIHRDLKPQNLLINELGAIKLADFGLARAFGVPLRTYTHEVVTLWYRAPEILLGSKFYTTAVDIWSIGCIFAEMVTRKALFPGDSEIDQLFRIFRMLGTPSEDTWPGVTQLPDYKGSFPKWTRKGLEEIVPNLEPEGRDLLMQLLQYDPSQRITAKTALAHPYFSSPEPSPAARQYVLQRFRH
T2 sequence (P24864 whole entry partner, species assumed): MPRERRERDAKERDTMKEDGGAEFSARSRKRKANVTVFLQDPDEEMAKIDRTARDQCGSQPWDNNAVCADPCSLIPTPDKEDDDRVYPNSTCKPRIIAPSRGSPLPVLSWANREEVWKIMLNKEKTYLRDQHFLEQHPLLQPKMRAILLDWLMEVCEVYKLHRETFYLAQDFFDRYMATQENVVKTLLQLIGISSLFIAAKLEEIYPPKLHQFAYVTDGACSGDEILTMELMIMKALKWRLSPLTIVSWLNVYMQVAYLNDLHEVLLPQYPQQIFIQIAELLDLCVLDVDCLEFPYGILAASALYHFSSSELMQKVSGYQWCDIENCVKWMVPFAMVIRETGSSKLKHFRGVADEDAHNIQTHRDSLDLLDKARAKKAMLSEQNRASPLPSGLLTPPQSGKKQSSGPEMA
T4 sequence (Q96Q40 whole entry, species assumed): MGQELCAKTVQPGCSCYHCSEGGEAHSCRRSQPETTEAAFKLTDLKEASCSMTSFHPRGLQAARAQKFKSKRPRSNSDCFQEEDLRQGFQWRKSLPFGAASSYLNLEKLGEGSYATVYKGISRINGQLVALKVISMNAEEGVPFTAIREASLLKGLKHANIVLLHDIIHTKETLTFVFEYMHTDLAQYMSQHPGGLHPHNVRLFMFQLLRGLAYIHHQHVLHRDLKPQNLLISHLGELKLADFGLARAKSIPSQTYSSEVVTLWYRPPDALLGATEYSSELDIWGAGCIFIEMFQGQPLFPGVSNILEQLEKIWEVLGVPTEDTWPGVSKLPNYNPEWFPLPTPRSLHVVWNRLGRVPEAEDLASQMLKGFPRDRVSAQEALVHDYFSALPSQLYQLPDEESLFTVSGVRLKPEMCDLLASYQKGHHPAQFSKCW
T4 sequence (Q8ND76 whole entry partner, species assumed): as the sequence (Q8ND76 whole entry partner, species assumed) above
T5 sequence (P50750 whole entry, species assumed): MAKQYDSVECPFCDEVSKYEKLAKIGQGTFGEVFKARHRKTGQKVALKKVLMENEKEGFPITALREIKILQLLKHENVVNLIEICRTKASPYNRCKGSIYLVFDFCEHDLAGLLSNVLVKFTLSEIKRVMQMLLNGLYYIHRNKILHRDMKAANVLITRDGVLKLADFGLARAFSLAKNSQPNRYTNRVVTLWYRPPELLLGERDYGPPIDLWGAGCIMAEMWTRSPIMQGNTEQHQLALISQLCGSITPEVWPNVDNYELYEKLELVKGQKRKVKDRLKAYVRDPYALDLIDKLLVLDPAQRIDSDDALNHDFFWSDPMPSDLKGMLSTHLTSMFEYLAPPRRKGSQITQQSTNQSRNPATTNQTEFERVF
T5 sequence (O60563 whole entry partner, species assumed): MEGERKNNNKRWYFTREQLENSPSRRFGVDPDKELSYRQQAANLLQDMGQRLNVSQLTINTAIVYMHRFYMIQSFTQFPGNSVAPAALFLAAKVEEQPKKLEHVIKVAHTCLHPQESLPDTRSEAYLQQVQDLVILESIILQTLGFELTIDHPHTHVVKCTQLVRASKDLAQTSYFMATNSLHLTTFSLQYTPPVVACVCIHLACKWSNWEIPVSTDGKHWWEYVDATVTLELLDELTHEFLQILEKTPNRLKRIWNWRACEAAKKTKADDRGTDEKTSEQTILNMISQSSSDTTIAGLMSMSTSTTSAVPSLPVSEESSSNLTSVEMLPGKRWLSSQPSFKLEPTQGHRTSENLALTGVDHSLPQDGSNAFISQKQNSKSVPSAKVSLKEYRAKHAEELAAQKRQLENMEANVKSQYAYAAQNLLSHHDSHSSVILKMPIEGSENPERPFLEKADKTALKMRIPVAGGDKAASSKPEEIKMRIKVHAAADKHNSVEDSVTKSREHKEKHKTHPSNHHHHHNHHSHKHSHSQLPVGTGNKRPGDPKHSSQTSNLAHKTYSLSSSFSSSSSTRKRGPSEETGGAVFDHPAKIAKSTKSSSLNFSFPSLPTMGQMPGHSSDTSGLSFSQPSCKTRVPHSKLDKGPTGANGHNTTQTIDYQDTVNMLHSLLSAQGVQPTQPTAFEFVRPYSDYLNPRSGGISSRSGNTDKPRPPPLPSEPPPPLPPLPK
T1 sequence (P06493 whole entry, species assumed): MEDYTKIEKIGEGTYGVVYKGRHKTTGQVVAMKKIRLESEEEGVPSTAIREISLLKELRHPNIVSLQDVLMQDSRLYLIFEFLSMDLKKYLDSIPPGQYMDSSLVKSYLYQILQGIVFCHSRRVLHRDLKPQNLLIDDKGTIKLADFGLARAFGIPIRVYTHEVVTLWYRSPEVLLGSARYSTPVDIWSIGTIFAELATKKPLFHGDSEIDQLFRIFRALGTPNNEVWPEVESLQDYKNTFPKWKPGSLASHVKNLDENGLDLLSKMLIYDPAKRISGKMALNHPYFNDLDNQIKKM
T1 sequence (P24864 whole entry partner, species assumed): as the sequence (P24864 whole entry partner, species assumed) above

Structure (SMILES): C=CC(=O)Nc1cc(N(C(=O)NCc2ccccc2)[C@H]2CC[C@H](Nc3ccc(C#N)cn3)CC2)ccc1N1CCC(N(C)C)CC1 [YJZ5118, N-(5-(3-benzyl-1-((1r,4r)-4-((5-cyanopyridin-2-yl)amino)cyclohexyl)ureido)-2-(4-(dimethylamino)piperidin-1-yl)phenyl)acrylamide]
- IC50 (CDK1/CycE1): > 10000 nM
- IC50 (CDK3/CycE1): > 10000 nM
- IC50 (CDK5/p35NCK): > 10000 nM
- RNA polymerase II Ser2 phosphorylation after washout [1]: complete loss of phosphorylation observed at 15 h after washout
- IC50 (CDK15/CycY): > 10000 nM
- IC50 (CDK9/CycT1): 4910 nM
- IC50 (CDK5/p25NCK): > 10000 nM
- IC50 (CDK14/CycY): > 10000 nM
- IC50 (CDK2/CycA2): > 10000 nM

Source: PMC12147761 (Journal of medicinal chemistry, 2025)
